According to publication PMC5040251, “The Structure of Treponema pallidum Tp0751 (Pallilysin) Reveals a Non-canonical Lipocalin Fold That Mediates Adhesion to Extracellular Matrix Components and Interactions with Host Cells” (PLoS Pathogens, 2016):
Ends that are not written are not given here.

Legend:
[1] = molecular target: fibronectin; experiment: Dose-dependent binding assay to immobilized fibronectin; conditions: plate binding to immobilized human plasma fibronectin; peptides serially diluted 1:2 from 40 to 0.625; absorbance 600 nm, three wells, representative of two independent experiments; non-linear regression, GraphPad Prism; read-out: Apparent Kd (Fn)
Protocol: (§1) Fig 3 Tp0751 lipocalin derived peptides directly bind host proteins. (A) Thirteen overlapping Tp0751 synthetic 24-mer peptides were evaluated for binding to immobilized fibrinogen, fibronectin, collagen type I, and collagen type IV. Average absorbance readings (600 nm) from three wells are presented with bars indicating standard error and the results are representative of two independent experiments. […] Average absorbance readings (600 nm) from three wells are presented with bars indicating standard error and the results are representative of two independent experiments. […] The strand colored in cyan reflects the overlap of p10 and p11. Color coded sequences of peptides p4, p6, p10, p10scr1, and p10scr2 are shown. Arginine residues in the p10 peptides are indicated by underlining.
(§2) Plasminogen-depleted human fibrinogen (Calbiochem) was purchased from VWR International. Laminin isolated from Engelbreth-Holm-Swarm murine sarcoma basement membrane and fibronectin isolated from human plasma were purchased from Sigma-Aldrich Canada Ltd. (Oakville, ON). Human collagen types I and IV (Rockland Immunochemicals, Inc.) were purchased from VWR International.
(§3) To test for binding of synthetic Tp0751 peptides p1-p13, p1scr, p6scr, p10scr1, and p10scr2 to the host proteins fibrinogen, fibronectin, laminin, collagen type I, and collagen type IV, initial binding assays were performed as described previously. For dose-dependent binding assays, recombinant proteins were serially diluted 1:2 from either 10 μM to 0.156 μm (Tp0751_78A used for crystallization and Tp0751_78 WT) or 40 μm to 0.625 μm (peptides p4, p6, p10, p11, p10scr1, and p10scr2). Average absorbance readings (600 nm) from three wells are presented with bars indicating standard error and the results are representative of two independent experiments. Plates were read at 600 nm with a BioTek enzyme-linked immunosorbent assay plate reader (Fisher Scientific, Ottawa, ON). All statistical analyses were performed using the Student’s two-tailed t-test. Non-linear regression curves were fitted and apparent dissociation constants (K d) were calculated using GraphPad Prism data analysis software (San Diego, CA).

[2] = system: collagen type IV; experiment: Initial (single point) binding screen of Tp0751 peptide library to immobilized collagen type IV; conditions: immobilized human collagen type IV; absorbance 600 nm, three wells, two independent experiments; Student's two-tailed t-test against non-binding peptides
Protocol: as §1, §2, §3

[3] = molecular target: T1, fibrinogen (Homo sapiens, UniProt P02671+P02675+P02679); experiment: Initial (single point) binding screen of Tp0751 peptide library to immobilized fibrinogen; conditions: absorbance 600 nm, three wells, two independent experiments, Student's two-tailed t-test against non-binding peptides
T1 construct: purchased Calbiochem, purchased from VWR International
T1 sequence (P02671 20-629 limits assumed): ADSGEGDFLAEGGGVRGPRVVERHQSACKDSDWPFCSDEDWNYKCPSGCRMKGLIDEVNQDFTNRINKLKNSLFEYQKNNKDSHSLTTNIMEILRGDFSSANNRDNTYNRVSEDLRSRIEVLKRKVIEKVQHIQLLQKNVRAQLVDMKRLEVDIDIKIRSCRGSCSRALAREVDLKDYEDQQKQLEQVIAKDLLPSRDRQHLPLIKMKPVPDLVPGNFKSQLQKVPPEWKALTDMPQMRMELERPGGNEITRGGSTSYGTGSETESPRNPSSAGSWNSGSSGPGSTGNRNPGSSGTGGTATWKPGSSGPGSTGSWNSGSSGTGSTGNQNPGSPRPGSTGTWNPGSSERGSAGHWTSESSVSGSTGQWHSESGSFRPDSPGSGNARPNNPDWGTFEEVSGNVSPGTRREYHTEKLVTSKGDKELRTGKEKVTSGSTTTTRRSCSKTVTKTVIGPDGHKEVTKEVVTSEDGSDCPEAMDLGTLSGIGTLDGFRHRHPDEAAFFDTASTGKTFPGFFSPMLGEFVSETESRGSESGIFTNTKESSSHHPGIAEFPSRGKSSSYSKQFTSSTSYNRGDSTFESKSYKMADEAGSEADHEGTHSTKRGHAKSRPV
T1 sequence (P02675 31-491): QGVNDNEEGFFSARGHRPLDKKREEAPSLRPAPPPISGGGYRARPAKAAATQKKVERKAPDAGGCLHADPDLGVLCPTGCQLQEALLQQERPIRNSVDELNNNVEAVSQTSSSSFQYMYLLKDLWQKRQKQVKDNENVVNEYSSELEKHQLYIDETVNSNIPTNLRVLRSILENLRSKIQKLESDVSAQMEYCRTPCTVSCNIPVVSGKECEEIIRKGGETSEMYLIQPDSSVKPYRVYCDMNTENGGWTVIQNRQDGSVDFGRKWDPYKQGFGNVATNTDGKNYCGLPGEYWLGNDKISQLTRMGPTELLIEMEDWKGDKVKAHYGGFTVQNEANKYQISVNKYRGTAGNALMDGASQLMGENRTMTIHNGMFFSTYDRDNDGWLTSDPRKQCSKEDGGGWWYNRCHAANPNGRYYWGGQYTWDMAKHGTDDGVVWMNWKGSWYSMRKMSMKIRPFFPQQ
T1 sequence (P02679 27-433 limits assumed): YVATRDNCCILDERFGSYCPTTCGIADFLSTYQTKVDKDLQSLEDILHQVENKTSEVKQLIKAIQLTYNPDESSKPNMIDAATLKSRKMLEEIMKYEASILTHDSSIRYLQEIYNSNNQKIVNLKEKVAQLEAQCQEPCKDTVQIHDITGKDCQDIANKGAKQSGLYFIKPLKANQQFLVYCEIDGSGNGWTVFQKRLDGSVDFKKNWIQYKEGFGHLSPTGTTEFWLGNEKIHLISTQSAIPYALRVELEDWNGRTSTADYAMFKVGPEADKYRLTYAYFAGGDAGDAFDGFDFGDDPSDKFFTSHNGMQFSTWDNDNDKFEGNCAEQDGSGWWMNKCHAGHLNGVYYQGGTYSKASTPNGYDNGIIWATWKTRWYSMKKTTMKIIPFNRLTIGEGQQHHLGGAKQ
Protocol: as §1, §2, §3

Row | Sequence | Kd [1] [µM] | Binding to collagen IV in initial binding screen [2] | Binding to fibrinogen in initial binding screen [3]
1 | HHHHHHGGAAQTHTQPPVQTAMRIALWNRA [p4] | 2.4 ± 0.1 | statistically significant binding | statistically significant binding
2 | HHHHHHQGALQHLLAGLWIQTEISPNSGDI [p6] | 4.5 ± 0.9 | statistically significant binding | statistically significant binding
3 | HHHHHHRKTVSFLTRNTAISSIRRRLEVTF [p10] | 1.6 ± 0.2 | significant binding | significant binding
4 | HHHHHHSIRRRLEVTFESHEVIHVRAVEDV [p11] | 5.8 ± 0.3 | statistically significant binding | statistically significant binding
